Here are results for eight molecules from patent US20120195857A1, “Hepatitis C Virus Inhibitors” (Bristol-Myers Squibb Company, priority 2010, published 2012).

The subject of this assay is HCV 1b genotype. Nature of the assay: microbe, parasite or virus in culture. It is filed as cell-based. As to conditions: Hepatitis C virus, HCV 1b genotype replicon. On the procedure: An HCV Replicon assay was utilized in the present disclosure, and was prepared, conducted and validated as described in commonly owned PCT/US2006/022197 and in O'Boyle et. al. Antimicrob Agents Chemother. 2005 April; 49(4):1346-53. Assay methods incorporating luciferase reporters have also been used as described (Apath.com).
HCV-neo replicon cells and replicon cells containing resistance substitutions in the NSSA region were used to test the currently described family of compounds. […] Ranges are as follows: A =0.5 pM to 10 pM; B=11 pM to 90 pM; C=91 pM to 160 pM; D=[…] to 5 nM.
Background: A replicon is a self-replicating genome or part of one, used to study replication in cells.

[1] abbreviates: read-out: EC50 (Effective 50% inhibitory concentration).

Read-outs that look alike come from different tables or passages of the source.

Consider `COC(=O)N[C@H](C(=O)N1[C@@H]2C[C@@H]2C[C@H]1c1nc(-c2ccc(-c3ccc(-c4ccc(-c5c[nH]c([C@@H]6C[C@H]7C[C@H]7N6C(=O)[C@@H](NC(=O)OC)C(C)C)n5)cc4)c4[nH]ccc34)cc2)c[nH]1)C(C)C` [Example 18], for which the EC50 under setting [1] was 0.00274 nM.
Turning to `COC(=O)NC(C(=O)N1[C@@H]2C[C@@H]2C[C@H]1c1ncc(-c2ccc(-c3cc(-c4cnc([C@@H]5C[C@H]6C[C@H]6N5C(=O)[C@@H](NC(=O)OC)C(C)C)[nH]4)cc4c3CCC4)cc2)[nH]1)C(C)C` (some centres unmarked) [Example 5], the EC50 (read-out: EC50 Range) lay in the range of 0.091 to 0.16 nM.
With `COC(=O)N[C@H](C(=O)N1[C@@H]2C[C@@H]2C[C@H]1c1ncc(-c2ccc(-c3ccc(-c4cnc([C@@H]5C[C@H]6C[C@H]6N5C(=O)[C@@H](NC(=O)OC)C5CCOCC5)[nH]4)c4nc[nH]c34)cc2)[nH]1)C1CCOCC1` [Example 13], the EC50 is, setting by setting: under setting [1], 4.18 nM; (read-out: EC50 Range) 0.161 to 5 nM.
As to `COC(=O)N[C@H](C(=O)N1[C@@H](C)CC[C@H]1c1ncc(-c2ccc(-c3ccc(-c4coc([C@@H]5CC[C@H](C)N5C(=O)[C@@H](NC(=O)OC)C5CCOCC5)n4)c4c3CCC4)cc2)[nH]1)C1CCOCC1` [Example 7], the EC50 runs as follows: under setting [1], 0.0942 nM; (read-out: EC50 Range) 0.091 to 0.16 nM.
As to `COC(=O)N[C@H](C(=O)N1[C@@H]2C[C@@H]2C[C@H]1c1ncc(-c2ccc(-c3ccc(-c4cnc([C@@H]5C[C@H]6C[C@H]6N5C(=O)[C@@H](NC(=O)OC)C(C)C)[nH]4)c4nc[nH]c34)cc2)[nH]1)C(C)C` [Example 12], the EC50 is, setting by setting: under setting [1], 0.0409 nM; (read-out: EC50 Range) 0.011 to 0.09 nM.
On to `COC(=O)N[C@H](C(=O)N1[C@@H]2C[C@@H]2C[C@H]1c1ncc(-c2ccc(-c3ccc(-c4cnc([C@@H]5C[C@H]6C[C@H]6N5C(=O)[C@@H](NC(=O)OC)C5CCOCC5)[nH]4)c4c3CCC4)cc2)[nH]1)C1CCOCC1` [Example 4], for which, under “read-out: EC50 Range”, the EC50 was in the range of 0.011 to 0.09 nM.
On the same count and under the same terms, in the case of `COC(=O)N[C@H](C(=O)N1[C@@H](C)CC[C@H]1c1ncc(-c2ccc(-c3ccc(-c4cnc([C@@H]5CC[C@H](C)N5C(=O)[C@@H](NC(=O)OC)C5CCOCC5)[nH]4)c4nc[nH]c34)cc2)[nH]1)C1CCOCC1` [Example 14] it was 0.161 to 5 nM.
The same measure, in the same setting: with `COC(=O)N[C@H](C(=O)N1CCC[C@H]1c1ncc(-c2ccc(-c3ccc(-c4cnc([C@@H]5CCCN5C(=O)[C@@H](NC(=O)OC)C5CCOCC5)[nH]4)c4ccccc34)cc2)[nH]1)C1CCOCC1` [Example 2] the figure was 0.011 to 0.09 nM.
